Assay results from paper PMC6085820 (Molecular Biology of the Cell, 2018).

Biological target: T1, Mtq2:Trm112 (Saccharomyces cerevisiae, UniProt Q03920)
T1 sequence (Q03920 1-221): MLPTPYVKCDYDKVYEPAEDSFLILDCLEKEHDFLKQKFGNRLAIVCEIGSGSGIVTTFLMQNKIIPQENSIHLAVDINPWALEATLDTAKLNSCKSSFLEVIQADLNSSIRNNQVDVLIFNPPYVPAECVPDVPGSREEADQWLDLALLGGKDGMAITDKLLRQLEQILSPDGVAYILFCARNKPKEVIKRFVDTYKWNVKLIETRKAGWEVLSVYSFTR
T1 sequence (P53738 1-135 partner): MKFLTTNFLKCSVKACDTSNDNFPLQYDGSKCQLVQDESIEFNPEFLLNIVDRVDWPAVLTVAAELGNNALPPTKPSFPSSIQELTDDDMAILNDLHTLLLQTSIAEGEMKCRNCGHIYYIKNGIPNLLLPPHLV
Experiment: MTase-Glo coupled luminescence assay
Assay type: biochemical
Details: SAM as methyl donor

Row | Structure (SMILES) | MTase-Glo coupled luminescence assay (SAH formation) (100 µM As(III)) | MTase-Glo coupled luminescence assay (SAH formation) (100 µM MAs(III))
1 | O[As](O)O [As(III), sodium arsenite] | SAM-dependent methyltransferase activity of Mtq2:Trm112 using As(III) as substrate was measured | –
2 | C[As](O)O [MAs(III), methyl arsenite] | – | methyltransferase activity was SAM-dependent and additionally capable of using MAs(III) as a substrate
